The values below come from ChEMBL document CHEMBL1146588, “Ancistrotanzanine A, the first 5,3'-coupled naphthylisoquinoline alkaloid, and two further, 5,8'-linked related compounds from the newly described species Ancistrocladus tanzaniensis” (J Nat Prod, 2003).

The IC50 is the concentration needed to halve the response being measured. A higher IC50 goes with weaker potency.

Data set [1] deals with Trypanosoma brucei rhodesiense. Nature of the data set: Antitrypanosomal activity against Trypanosoma brucei rhodesiense. Type of data set: functional, organism-based.
The nature of data set [2]: Cytotoxicity against rat L6 cells. Type of data set: cell-based. Particulars: read-out: MIC.
Another data set relates to Trypanosoma cruzi. Description: Antitrypanosomal activity against Trypanosoma cruzi. In kind it is functional, organism-based.
Data set [3] relates to Plasmodium falciparum. Description: Antimalarial activity against Plasmodium falciparum 3D7. In kind it is functional, organism-based.
The subject of a further data set is Leishmania donovani. Nature of the data set: Antileishmanial activity against Leishmania donovani. In kind it is functional, organism-based.
In data set [4] the test system is Plasmodium falciparum. Nature of the data set: Antimalarial activity against Plasmodium falciparum K1. Type of data set: functional, organism-based.

In brackets after ≈: the same amount, converted by molar mass.

For `COc1cc(OC)c(-c2ccc(OC)c3c(OC)cc(C)cc23)c2c1C(C)=N[C@@H](C)C2` [ANCISTROEALAINE A], the 50% inhibitory concentration (IC50) in data set [1] was 0.7 µg/mL (≈ 1.67 µM); in the data set with Trypanosoma cruzi it was 1.5 µg/mL (≈ 3.58 µM); in the data set on Plasmodium falciparum [3], 5 µg/mL (≈ 11.9 µM); in the data set with Leishmania donovani, 1.6 µg/mL (≈ 3.81 µM); in the data set with Plasmodium falciparum [4] it was 0.3 µg/mL (≈ 0.715 µM). The MCC in data set [2] is 8.1 µg/mL.

`COc1cc(OC)c(-c2c(C)cc3cccc(OC)c3c2O)c2c1C(C)=N[C@@H](C)C2` [ANCISTROTANZANINE A]: the IC50 was 0.7 µg/mL (≈ 1.73 µM) in data set [1], 1.7 µg/mL (≈ 4.19 µM) in the data set on Trypanosoma cruzi, 1.8 µg/mL (≈ 4.44 µM) in the data set with Leishmania donovani and 0.3 µg/mL (≈ 0.74 µM) with Plasmodium falciparum [4]. The MCC in data set [2] was determined as 6.4 µg/mL.

In the case of `COc1cc(OC)c2c(c1-c1ccc(OC)c3c(OC)cc(C)cc13)C[C@H](C)N[C@H]2C` [ANCISTROTECTORILINE A], the IC50 in data set [1] is 2.1 µg/mL (≈ 4.98 µM); in the data set on Trypanosoma cruzi, 17.8 µg/mL (≈ 42.2 µM); in the data set on Plasmodium falciparum [3], 14 µg/mL (≈ 33.2 µM); in the data set with Leishmania donovani, above 10 µg/mL; with Plasmodium falciparum [4], 0.5 µg/mL (≈ 1.19 µM). Also, the MCC in data set [2] is 6.5 µg/mL.

`O=C(Cn1ccnc1[N+](=O)[O-])NCc1ccccc1` [BENZNIDAZOLE] gave an IC50 in the data set on Trypanosoma cruzi of 0.42 µg/mL (≈ 1.61 µM).

Regarding `Nc1nc(N)nc(Nc2ccc([As]3SCC(CO)S3)cc2)n1` (stereo not given) [MELARSOPROL], in data set [1], the IC50 was 0.001 µg/mL.

On to `CCCCCCCCCCCCCCCCOP(=O)([O-])OCC[N+](C)(C)C` [MILTEFOSINE], for which the IC50 in the data set with Leishmania donovani is 0.305 µg/mL (≈ 0.748 µM).
